This note sets out measurements from PMC2906706 (Cancer research, 2010).

For one assay, the target named is OCT2 (Homo sapiens, UniProt O15244). Nature of the assay: inhibition of ASP+ uptake in HEK293 cells over-expressing OCT2. The format is cell-based.
Another assay addresses T1, OCT1 (Homo sapiens, UniProt O15245).
T1 sequence (O15245 1-554): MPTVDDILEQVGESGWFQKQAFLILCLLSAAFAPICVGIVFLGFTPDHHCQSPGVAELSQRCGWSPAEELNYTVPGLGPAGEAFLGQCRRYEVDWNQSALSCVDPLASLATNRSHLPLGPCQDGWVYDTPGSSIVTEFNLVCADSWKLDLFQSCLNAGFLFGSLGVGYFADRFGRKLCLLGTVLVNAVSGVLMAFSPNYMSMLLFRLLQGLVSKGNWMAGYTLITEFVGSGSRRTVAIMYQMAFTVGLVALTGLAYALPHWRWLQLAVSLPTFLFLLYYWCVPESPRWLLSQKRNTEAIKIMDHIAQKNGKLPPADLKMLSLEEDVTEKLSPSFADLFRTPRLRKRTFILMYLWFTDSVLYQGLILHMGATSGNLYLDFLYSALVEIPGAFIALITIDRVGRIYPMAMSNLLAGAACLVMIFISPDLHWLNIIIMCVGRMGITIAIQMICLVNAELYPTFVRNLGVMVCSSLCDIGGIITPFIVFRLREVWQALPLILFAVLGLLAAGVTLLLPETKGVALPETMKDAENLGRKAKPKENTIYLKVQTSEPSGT
Nature of the assay: inhibition of ASP+ uptake in HEK293 cells over-expressing OCT1. The class given is cell-based.

Chain of OCT2 (O15244 whole entry): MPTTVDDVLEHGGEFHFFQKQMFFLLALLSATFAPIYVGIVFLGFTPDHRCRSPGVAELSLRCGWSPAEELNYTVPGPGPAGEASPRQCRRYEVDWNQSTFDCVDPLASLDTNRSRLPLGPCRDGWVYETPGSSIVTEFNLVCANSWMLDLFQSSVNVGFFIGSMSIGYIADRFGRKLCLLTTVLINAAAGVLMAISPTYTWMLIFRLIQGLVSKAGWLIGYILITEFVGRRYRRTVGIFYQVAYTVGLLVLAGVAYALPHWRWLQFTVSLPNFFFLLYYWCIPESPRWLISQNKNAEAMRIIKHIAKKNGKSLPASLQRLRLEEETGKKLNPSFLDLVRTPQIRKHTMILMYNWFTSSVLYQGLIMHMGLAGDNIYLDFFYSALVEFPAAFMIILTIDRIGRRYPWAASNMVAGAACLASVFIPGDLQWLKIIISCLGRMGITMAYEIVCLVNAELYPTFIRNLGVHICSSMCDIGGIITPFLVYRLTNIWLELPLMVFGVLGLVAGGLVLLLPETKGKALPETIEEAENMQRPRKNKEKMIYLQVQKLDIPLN

For `CN1CCN(CCOc2cc(OC3CCOCC3)c3c(Nc4c(Cl)ccc5c4OCO5)ncnc3c2)CC1` [saracatinib, N-(5-chloro-1,3-benzodioxol-4-yl)-7-[2-(4-methylpiperazin-1-yl)ethoxy]-5-(tetrahydro-2H-pyran-4-yloxy)quinazolin-4-amine], the IC50 – broadly, the concentration that gives 50% inhibition – worked out at 0.46 µM on OCT2 and 27.1 µM at OCT1.
